From patent EP4775583A1, “COMPOUND OR SALT THEREOF, METHOD FOR PRODUCING SAME, PHARMACEUTICAL COMPOSITION CONTAINING COMPOUND OR SALT THEREOF, AND METHOD FOR PRODUCING SAME” (Celaid Therapeutics Inc., priority 2023, dated 2025)
Entries after “also recorded” stand apart in the source; their conditions may differ. Counter-ions that a name gives are not always drawn.

Experiments:
[1] = test system: mouse neuroblastoma N2a cells; assay: Neurite outgrowth assay; format: cell-based; conditions: for neurite outgrowth / neurite outgrowth-promoting activity, comparison between compounds: 0.2 µM, 48 h treatment (Fig. 21(B)); for neurite outgrowth-promoting activity, comparison between compounds: structure-activity comparison; for dose-dependent neurite outgrowth activity: 0.02 - 2 µM, 48 h treatment (Fig. 21(C))
Method: The Mouse Neuro-2a (N2a) cell line was obtained from the Japanese Collection of Research Bioresources (JCRB) Cell Bank. The N2a cells were plated at a concentration of 1 × 10^4 cells/mL in Dulbecco's modified Eagle's medium (hereinafter also referred to as DMEM) containing high glucose, 10% FBS, 100 U/mL penicillin, and 100 µg/mL streptomycin at 37 °C in a humidified atmosphere of 5% CO2.
For the neurite outgrowth assay, the medium was changed to DMEM supplemented with 2% FBS. After incubation with the test compounds, cell morphology was examined using a microscope (Olympus CKX41).
The differentiated cells were defined as those with at least one neurite that was longer than twice the diameter of the cell body. The results were expressed as the percentage of differentiated cells among the counted cells. These experiments were carried out in triplicate.

H3K4me3 = assay: Western blot detection of H3K4me3 levels; format: cell-based, Mouse; conditions: N2a cells, 24 h treatment (Fig. 26)
Method: (§1) The N2a cells (5 × 10^5 cells/2 mL/dish) were treated for 24 h with the test compounds at the indicated concentrations in a 10% FBS-supplemented cell culture medium, and cells were collected and extracted with SDS sampling buffer. Protein concentrations of the lysates were determined using a BCA protein assay. Equivalent amounts of protein from each lysate were resolved in 5% to 20% SDS-polyacrylamide gels, and bands were transferred onto PVDF membranes (Millipore, #IPVH00010 for β-actin detection, #ISEQ10100 for H3, H3K4me3, and H3K27Ac detection). After blocking with TBS-T containing 5% skimmed milk, the transblotted membranes were probed with primary antibodies. The following antibodies were used as the primary antibodies: rabbit monoclonal KDM5A antibody (CST #3876, 1 : 1000 dilution); mouse monoclonal β-actin antibody (Santa Cruz, #sc-47778, 1 : 2000 dilution); rabbit polyclonal H3K4me3 antibody (Abcam, #ab8580, 1 : 5000 dilution); rabbit polyclonal H3K27Ac antibody (Abcam, #ab4729, 1 : 1000 dilution); or rabbit polyclonal histone H3 antibody (Abcam, #ab1791, 1 : 200000 dilution). […]

H3K27Ac = assay: Western blot detection of H3K27Ac levels; format: cell-based, Mouse; conditions: N2a cells, 24 h treatment (Fig. 26)
Method: as §1

KDM5A [2] = target: KDM5A (Homo sapiens, UniProt P29375); assay: KDM5A inhibitory activity, in vitro assay; format: biochemical; conditions: in vitro assay (Fig. 27)
KDM5A [3] = target: T1, KDM5A (Mus musculus, UniProt Q3UXZ9); assay: Western blot detection of KDM5A levels (degradation); format: cell-based; conditions: N2a cells
T1 construct: Western Blot-Detection of KDM5A Levels in N2a Cells; endogenous in cells; host or cells: N2a (mouse neuroblastoma neuro-2a) cells
Method: as §1

HDAC1 = HDAC1 (Homo sapiens, UniProt Q13547); assay: HDAC1 inhibitory activity, in vitro assay; format: biochemical; conditions: in vitro assay (Fig. 27)
HDAC1, sequence (Q13547 whole entry, species assumed): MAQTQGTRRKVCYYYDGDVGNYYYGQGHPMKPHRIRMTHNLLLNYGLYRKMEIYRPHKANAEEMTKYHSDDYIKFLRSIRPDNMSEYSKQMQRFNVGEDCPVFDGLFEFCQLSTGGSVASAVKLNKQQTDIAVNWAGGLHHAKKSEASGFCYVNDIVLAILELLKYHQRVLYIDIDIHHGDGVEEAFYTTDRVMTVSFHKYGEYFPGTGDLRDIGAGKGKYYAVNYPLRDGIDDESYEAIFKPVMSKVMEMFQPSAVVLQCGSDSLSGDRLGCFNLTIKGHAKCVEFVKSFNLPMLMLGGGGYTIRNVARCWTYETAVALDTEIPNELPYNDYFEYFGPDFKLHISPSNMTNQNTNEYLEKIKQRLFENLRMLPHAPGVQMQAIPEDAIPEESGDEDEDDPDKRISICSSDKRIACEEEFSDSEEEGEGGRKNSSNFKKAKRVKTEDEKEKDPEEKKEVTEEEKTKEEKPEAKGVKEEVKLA

T1 sequence (Q3UXZ9 whole entry): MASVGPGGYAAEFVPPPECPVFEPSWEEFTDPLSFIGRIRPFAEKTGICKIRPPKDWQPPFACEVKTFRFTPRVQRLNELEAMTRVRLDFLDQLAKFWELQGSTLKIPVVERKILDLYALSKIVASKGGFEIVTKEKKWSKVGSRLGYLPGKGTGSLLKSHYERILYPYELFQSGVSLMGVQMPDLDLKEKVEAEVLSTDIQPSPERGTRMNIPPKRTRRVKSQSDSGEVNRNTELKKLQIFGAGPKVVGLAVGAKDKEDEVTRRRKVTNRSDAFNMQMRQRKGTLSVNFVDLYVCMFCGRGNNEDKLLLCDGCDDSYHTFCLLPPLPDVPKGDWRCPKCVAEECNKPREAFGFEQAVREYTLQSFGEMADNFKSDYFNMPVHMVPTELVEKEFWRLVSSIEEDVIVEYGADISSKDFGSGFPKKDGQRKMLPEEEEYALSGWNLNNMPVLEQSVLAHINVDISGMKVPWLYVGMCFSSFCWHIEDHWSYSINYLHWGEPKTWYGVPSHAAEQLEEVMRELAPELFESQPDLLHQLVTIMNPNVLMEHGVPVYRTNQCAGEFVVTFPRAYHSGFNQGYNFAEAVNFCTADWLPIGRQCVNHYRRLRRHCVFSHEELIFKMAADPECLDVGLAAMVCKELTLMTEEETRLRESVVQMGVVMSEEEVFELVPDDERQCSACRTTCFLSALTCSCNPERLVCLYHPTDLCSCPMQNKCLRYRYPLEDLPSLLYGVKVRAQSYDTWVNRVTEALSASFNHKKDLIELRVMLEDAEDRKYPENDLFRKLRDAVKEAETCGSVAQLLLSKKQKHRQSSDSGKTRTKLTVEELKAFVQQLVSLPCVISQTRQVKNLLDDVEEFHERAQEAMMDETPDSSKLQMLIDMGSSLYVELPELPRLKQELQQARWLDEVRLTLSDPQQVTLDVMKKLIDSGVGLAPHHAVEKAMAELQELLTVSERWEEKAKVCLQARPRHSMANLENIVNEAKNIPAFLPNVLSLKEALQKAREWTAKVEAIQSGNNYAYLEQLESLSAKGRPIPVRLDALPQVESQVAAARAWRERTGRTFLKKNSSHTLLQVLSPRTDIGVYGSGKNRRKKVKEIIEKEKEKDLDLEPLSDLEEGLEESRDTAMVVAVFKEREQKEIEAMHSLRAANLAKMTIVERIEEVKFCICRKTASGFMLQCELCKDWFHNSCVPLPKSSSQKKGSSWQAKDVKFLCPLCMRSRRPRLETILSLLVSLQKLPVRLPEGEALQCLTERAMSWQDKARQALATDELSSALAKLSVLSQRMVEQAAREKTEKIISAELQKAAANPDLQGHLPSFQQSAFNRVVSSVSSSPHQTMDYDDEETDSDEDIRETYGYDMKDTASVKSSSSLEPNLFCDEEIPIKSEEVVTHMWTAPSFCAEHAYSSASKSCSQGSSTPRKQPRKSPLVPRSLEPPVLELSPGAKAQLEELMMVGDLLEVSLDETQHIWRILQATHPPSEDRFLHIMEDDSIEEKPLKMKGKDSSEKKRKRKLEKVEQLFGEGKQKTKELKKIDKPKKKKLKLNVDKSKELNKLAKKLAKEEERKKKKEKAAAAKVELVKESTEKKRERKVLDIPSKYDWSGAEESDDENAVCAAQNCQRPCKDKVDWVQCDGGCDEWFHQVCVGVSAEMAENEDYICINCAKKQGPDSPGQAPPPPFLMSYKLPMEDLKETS
KDM5A (Homo sapiens, UniProt P29375), sequence (P29375 whole entry, species assumed): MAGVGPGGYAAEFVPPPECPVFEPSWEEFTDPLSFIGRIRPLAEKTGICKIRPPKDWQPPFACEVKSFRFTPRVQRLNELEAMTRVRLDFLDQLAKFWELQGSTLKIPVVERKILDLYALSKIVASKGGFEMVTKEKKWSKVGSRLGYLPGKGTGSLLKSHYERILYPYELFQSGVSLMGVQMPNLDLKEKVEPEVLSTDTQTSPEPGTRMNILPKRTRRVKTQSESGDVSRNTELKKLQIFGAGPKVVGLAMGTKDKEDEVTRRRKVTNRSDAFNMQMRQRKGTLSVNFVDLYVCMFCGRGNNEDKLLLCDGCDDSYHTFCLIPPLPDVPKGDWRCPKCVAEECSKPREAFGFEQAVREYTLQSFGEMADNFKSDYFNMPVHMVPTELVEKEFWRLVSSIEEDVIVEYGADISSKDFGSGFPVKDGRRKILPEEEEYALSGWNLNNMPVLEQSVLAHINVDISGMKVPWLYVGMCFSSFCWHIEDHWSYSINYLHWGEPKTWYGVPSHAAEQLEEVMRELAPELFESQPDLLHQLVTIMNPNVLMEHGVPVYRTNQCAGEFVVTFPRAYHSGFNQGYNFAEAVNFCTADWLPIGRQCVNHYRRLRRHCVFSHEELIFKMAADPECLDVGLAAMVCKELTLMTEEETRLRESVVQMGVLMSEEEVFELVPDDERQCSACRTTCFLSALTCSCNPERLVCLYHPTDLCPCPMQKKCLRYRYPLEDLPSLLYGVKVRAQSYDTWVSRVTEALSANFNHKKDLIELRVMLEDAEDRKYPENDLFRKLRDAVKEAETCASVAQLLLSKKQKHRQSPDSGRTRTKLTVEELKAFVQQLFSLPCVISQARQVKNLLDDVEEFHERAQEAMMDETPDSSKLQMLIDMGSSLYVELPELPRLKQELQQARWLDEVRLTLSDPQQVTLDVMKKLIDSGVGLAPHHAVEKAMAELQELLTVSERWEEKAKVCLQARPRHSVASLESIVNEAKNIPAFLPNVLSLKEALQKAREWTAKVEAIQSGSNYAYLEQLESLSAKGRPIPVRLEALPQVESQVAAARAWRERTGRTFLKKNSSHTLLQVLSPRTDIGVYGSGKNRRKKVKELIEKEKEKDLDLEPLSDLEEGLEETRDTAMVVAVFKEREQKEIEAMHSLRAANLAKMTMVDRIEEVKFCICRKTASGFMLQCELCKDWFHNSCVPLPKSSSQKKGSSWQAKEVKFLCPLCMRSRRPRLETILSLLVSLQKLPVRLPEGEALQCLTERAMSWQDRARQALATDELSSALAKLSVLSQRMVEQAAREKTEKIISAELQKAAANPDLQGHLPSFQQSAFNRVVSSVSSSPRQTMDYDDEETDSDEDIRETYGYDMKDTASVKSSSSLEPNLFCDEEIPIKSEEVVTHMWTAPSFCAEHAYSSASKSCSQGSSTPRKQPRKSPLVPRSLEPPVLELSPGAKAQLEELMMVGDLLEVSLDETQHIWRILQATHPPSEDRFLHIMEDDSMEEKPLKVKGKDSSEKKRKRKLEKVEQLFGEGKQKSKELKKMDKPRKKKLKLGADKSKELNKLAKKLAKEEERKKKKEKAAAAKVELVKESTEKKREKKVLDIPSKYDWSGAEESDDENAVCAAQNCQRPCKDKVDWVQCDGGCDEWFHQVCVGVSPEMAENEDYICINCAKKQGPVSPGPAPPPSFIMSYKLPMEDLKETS

CC(C)c1c(-c2ccc(CCN(C)CCCCCCC(=O)NCCOCCOCCOc3cccc4c3C(=O)N(C3CCC(=O)NC3=O)C4=O)cc2)[nH]c2c(C#N)cnn2c1=O (centres unmarked) [Compound 14a, hydrochloride]
neurite outgrowth ([1]; N2a cells): promoted neurite outgrowth

CC(C)c1c(-c2ccc(CCN(C)CCCCCCCCCC(=O)NCCOCCOCCOc3cccc4c3C(=O)N(C3CCC(=O)NC3=O)C4=O)cc2)[nH]c2c(C#N)cnn2c1=O (centres unmarked) [Compound 14b, 10-{[4-(3-Cyano-6-isopropyl-7-oxo-4,7-dihydropyrazolo[1,5-a]pyrimidin-5-yl)phenethyl](methyl)-amino}-N-{2-[2-(2,6-dioxopiperidin-3-yl)-1,3-dioxoindolin-4-yl]oxy}ethoxy}ethyl}decanamide Hydrochloride]
neurite outgrowth ([1]; N2a cells): promoted neurite outgrowth | neurite outgrowth-promoting activity, comparison between compounds ([1]; N2a cells): stronger neurite outgrowth-promoting activity than compound 14a

CC(C)c1c(-c2ccc(CCN(C)CCCCCCc3ccc(C(=O)NCCOCCOCCOc4cccc5c4C(=O)N(C4CCC(=O)NC4=O)C5=O)cc3)cc2)[nH]c2c(C#N)cnn2c1=O (centres unmarked) [Compound 20a]
neurite outgrowth ([1]; N2a cells): promoted neurite outgrowth

CC(C)c1c(-c2ccc(CCN(C)CCCCCCc3ccc(C(=O)NCCCCCCOc4cccc5c4C(=O)N(C4CCC(=O)NC4=O)C5=O)cc3)cc2)[nH]c2c(C#N)cnn2c1=O (centres unmarked) [Compound 23a, 4-(6-{[4-(3-cyano-6-isopropyl-7-oxo-4,7-dihydropyrazolo[1,5-a]pyrimidin-5-yl)phenethyl](methyl)amino}hexyl)-N-(6-{[2-(2,6-dioxopiperidin-3-yl) -1, 3 - dioxoindolin-4-yl]oxy}hexyl) benzamide hydrochloride]
neurite outgrowth ([1]; N2a cells): promoted neurite outgrowth

CC(C)c1c(-c2ccc(CCN(C)CCCCCCc3cccc(C(=O)NCCCCCCOc4cccc5c4C(=O)N(C4CCC(=O)NC4=O)C5=O)c3)cc2)[nH]c2c(C#N)cnn2c1=O (centres unmarked) [Compound 23b, 3-(6-{[4-(3-Cyano-6-isopropyl-7-oxo-4,7-dihydropyrazolo[1,5-a]pyrimidin-5-yl)phenethyl](methyl)-amino}hexyl)-N-(6-{[2-(2,6-dioxopiperidin-3-yl)-1,3-dioxoindolin-4-yl]oxy}hexyl)benzamide Hydrochloride]
H3K4me3 levels (H3K4me3): dose-dependent accumulation of H3K4me3 levels | H3K27Ac levels (H3K27Ac): upregulated H3K27Ac levels | KDM5A inhibitory activity (KDM5A [2]): strongly inhibited KDM5A | KDM5A levels on co-treatment with proteasome inhibitor MG-132 (KDM5A [3]; 24 h co-treatment with MG-132 (Fig. 25(C), 25(D))): disturbed by the proteasome inhibitor MG-132 | KDM5A levels (KDM5A [3]; 24 h treatment (Fig. 25(A), 25(B))): decreased KDM5A levels in a dose-dependent manner | HDAC1 inhibitory activity (HDAC1): without affecting HDAC1 | neurite outgrowth-promoting activity, overall assessment ([1]; N2a cells (Fig. 21(B))): remarkable neurite outgrowth-promoting activity | time-dependent neurite outgrowth activity (number of neurite cells) ([1]; N2a cells, 0.02 µM, 24, 48 and 72 hours (Fig. 21(D))): increased the number of neurite cells in a time-dependent manner | neurite outgrowth ([1]; N2a cells): promoted neurite outgrowth | neurite outgrowth-promoting activity, comparison between compounds ([1]; N2a cells, Hydrochloride): superior to those of the para-substituent compounds 20a and 23a; also recorded: slightly better than that of the polyethylene linker compound 20b | dose-dependent neurite outgrowth activity ([1]; N2a cells): promoted neurite outgrowth

O=C1CCC(N2C(=O)c3ccccc3C2=O)C(=O)N1 (centres unmarked) [Compound 26, thalidomide, reference compound]
dose-dependent neurite outgrowth activity ([1]; N2a cells): did not show strong neurite outgrowth activity relative to Compounds 20b and 23b
